These molecules were tested against TNFα (Homo sapiens, UniProt P01375) (assay: TNF induced HEK-Blue assay (NF-kB-driven secreted alkaline phosphatase reporter)). Conditions: TNF induced HEK-Blue assay IC50 value, TNFα 0.5 ng/mL, HEK-Blue-CD40L cells, 18 h.
TNFα, sequence (P01375 77-233 limits assumed): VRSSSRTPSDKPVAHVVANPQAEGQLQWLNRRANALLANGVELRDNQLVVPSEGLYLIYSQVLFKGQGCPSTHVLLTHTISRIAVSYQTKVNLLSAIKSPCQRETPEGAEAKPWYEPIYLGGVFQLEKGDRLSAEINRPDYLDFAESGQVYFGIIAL
Assay type: cell-based
Method: TNF or CD40L-Induced HEK-Blue Assay
Test compounds serially diluted in DMSO were plated in an assay plate (LABCYTE, Cat. # LP-0200) at final concentrations ranging from 0.004 μM to 25 μM. TNFα (final concentration 0.5 ng/mL) or CD40L (final concentration 30 ng/mL) in assay buffer [DMEM, 4.5 g/l glucose (Gibco, Cat. 21063-029), 10% FBS (Sigma, F4135), 1% Penicillin-Streptomycin (Gibco, Cat. 15140-122), 1% Anti-Anti (Gibco, Cat. 15240-112) and 2 mM L-glutamine (Gibco, Cat. 25030-081)] was then added to the assay plate. After a 30 minute pre-incubation at 37° C. and 5% CO2, HEK-Blue™-CD40L cells (INVIVOGEN, Cat. Code hkb-cd40) containing a NF-kB-driven secreted alkaline phosphatase reporter gene were seeded into the assay plate at a density of 20,000 cells per well. This plate was then incubated for 18 h at 37° C. and 5% CO2. Secreted alkaline phosphatase expression was measured using QUANTI-Blue™ (INVIVOGEN, Cat. Code rep-qb1) according to manufacturer's specifications and the assay plate was read on a PerkinElmer Envision at 620 nm.
Inhibition data for the test compound over a range of concentrations was plotted as percentage inhibition of the test compound (100%=maximum inhibition). IC50 values were determined after correcting for background [(sample read-mean of low control)/(mean of high control-mean of low control)] where by the low control is DMSO without stimulation and high control is DMSO with stimulation. The IC50 is defined as the concentration of test compound which produces 50% inhibition and was quantified using the 4 parameter logistic equation to fit the data.
In the case of `C[C@@H](Nc1c(Cl)cnc2ccc(-c3cnc(C(C)(C)O)nc3)cc12)c1cc(C#N)ccc1F` [Example 376, (R)-3-(1-((3-chloro-6-(2-(2-hydroxypropan-2-yl)pyrimidin-5-yl)quinolin-4-yl)amino)ethyl)-4-fluorobenzonitrile], the IC50 is reported as under 1000 nM.

Same assay, conditions: TNFα 0.5 ng/mL, HEK-Blue-CD40L cells, 18 h; read-out: TNF induced HEK-Blue assay IC50 value
With `CC(Nc1ccnc2cc(F)c(-c3cnc(C4(O)CCOCC4)nc3)cc12)c1ccccc1F` (racemic) [Example 287, 4-(5-(7-fluoro-4-((1-(2-fluorophenyl)ethyl)amino)quinolin-6-yl)pyrimidin-2-yl)tetrahydro-2H-pyran-4-ol] the IC50 was 10000 to 25000 nM.
In the case of `Cc1nc2ccc(-c3ccc(C(C)(C)O)cc3)cc2c(NC(C)c2cccs2)c1Cl` (stereo not drawn) [Example 502, 2-(4-(3-chloro-2-methyl-4-((1-(thiophen-2-yl)ethyl)amino)quinolin-6-yl)phenyl)propan-2-ol], the IC50 is reported as 1000 to 10000 nM.
With `C[C@@H](Nc1c(Cl)cnc2ccccc12)c1cc(-c2cn(C)nc2C(F)(F)F)ccc1F` [Example 472, (R)-3-chloro-N-(1-(2-fluoro-5-(1-methyl-3-(trifluoromethyl)-1H-pyrazol-4-yl)phenyl)ethyl)quinolin-4-amine] the IC50 was 1000 to 10000 nM.
`CN(Cc1c(Cl)cnc2ccc(-c3cnc(C(C)(C)O)nc3)cc12)c1ccccc1F` [Example 67, 2-(5-(3-chloro-4-(((2-fluorophenyl)(methyl)amino)methyl)quinolin-6-yl)pyrimidin-2-yl)propan-2-ol] gave an IC50 of 1000 to 10000 nM.
`Cc1nc2ccc(-c3cnc(N4CCN(CC(=O)O)CC4)nc3)cc2c(N[C@H](C)c2cc(C#N)ccc2F)c1Cl` [Example 377, (R)-2-(4-(5-(3-chloro-4-((1-(5-cyano-2-fluorophenyl)ethyl)amino)-2-methylquinolin-6-yl)pyrimidin-2-yl)piperazin-1-yl)acetic acid] showed an IC50 of under 1000 nM.
Molecule `CC(C)(O)c1ccc(-c2cc3c(NC4(c5ccccc5F)CC4)c(Cl)cnc3cc2F)cc1` [Example 279, 2-(4-(3-chloro-7-fluoro-4-((1-(2-fluorophenyl)cyclopropyl)amino)quinolin-6-yl)phenyl) propan-2-ol] has an IC50 of 1000 to 10000 nM.
Molecule `C=CC(=O)N1CCN(c2ccc(-c3ccc4ncc(Cl)c(N[C@H](C)c5ccccc5F)c4c3)cn2)CC1` [Example 123, (R)-1-(4-(5-(3-chloro-4-((1-(2-fluorophenyl)ethyl)amino)quinolin-6-yl)pyridin-2-yl)piperazin-1-yl)prop-2-en-1-one] has an IC50 of under 1000 nM.
Work on `CC(Nc1c(Cl)cnc2ccc(-c3cnc(C(C)(C)O)nc3)cc12)c1ncccc1F` (racemic) [Example 171, 2-(5-(3-chloro-4-((1-(3-fluoropyridin-2-yl)ethyl)amino)quinolin-6-yl)pyrimidin-2-yl)propan-2-ol] yielded an IC50 of under 1000 nM.
`CC(Nc1c(Cl)cnc2ccc(-c3cnc(C(C)(C)O)nc3)cc12)c1cccc(C(F)(F)F)c1` (racemic) [Example 147, 2-(5-(3-chloro-4-((1-(3-(trifluoromethyl)phenyl)ethyl)amino)quinolin-6-yl)pyrimidin-2-yl)propan-2-ol] was tested, and the IC50 was 1000 to 10000 nM.
In the case of `CC(Nc1c(Cl)cnc2cc(F)c(-c3cnc(C(C)(C)O)cn3)cc12)c1ccccc1F` (racemic) [Example 294, 2-(5-(3-chloro-7-fluoro-4-((1-(2-fluorophenyl)ethyl)amino)quinolin-6-yl)pyrazin-2-yl)propan-2-ol], the IC50 is reported as under 1000 nM.
In the case of `COc1ccc(F)c([C@@H](C)Nc2c(Cl)c(C)nc3ccc(-c4cnc(C(C)(C)O)nc4)cc23)c1` [Example 326, (R)-2-(5-(3-chloro-4-((1-(2-fluoro-5-methoxyphenyl)ethyl)amino)-2-methylquinolin-6-yl)pyrimidin-2-yl)propan-2-ol], the IC50 is reported as under 1000 nM.
Work on `C[C@@H](Nc1c(Cl)cnc2ccccc12)c1cc(-c2cnc3[nH]ccc3c2)ccc1F` [Example 537, (R)-3-chloro-N-(1-(2-fluoro-5-(1H-pyrrolo[2,3-b]pyridin-5-yl)phenyl)ethyl)quinolin-4-amine] yielded an IC50 of under 1000 nM.
Molecule `Cc1nc2c(F)cc(-c3cnc(C(C)(C)O)nc3)cc2c(N[C@H](C)c2cc(C(N)=O)ccc2F)c1Cl` [Example 303, (R)-3-(1-((3-chloro-8-fluoro-6-(2-(2-hydroxypropan-2-yl)pyrimidin-5-yl)-2-methylquinolin-4-yl)amino)ethyl)-4-fluorobenzamide] has an IC50 of under 1000 nM.
Molecule `C[C@@H](Nc1c(Cl)cnc2ccccc12)c1cc(-c2cnc(N3CCOCC3)nc2)ccc1F` [Example 467, (R)-3-chloro-N-(1-(2-fluoro-5-(2-morpholinopyrimidin-5-yl)phenyl)ethyl)quinolin-4-amine] has an IC50 of 1000 to 10000 nM.
For `Cc1nc2ccc(-c3cnc(C(C)(C)O)nc3)cc2c(N[C@H](C)c2cc(C(N)=O)ccc2F)c1C` [Example 315, (R)-4-fluoro-3-(1-((6-(2-(2-hydroxypropan-2-yl)pyrimidin-5-yl)-2,3-dimethylquinolin-4-yl)amino)ethyl)benzamide], the IC50 was 10000 to 25000 nM.
Molecule `Cc1nc2ccc(-c3cnc(C(C)(C)O)nc3)cc2c(N[C@H](C)c2cc(-c3cnc(C(C)(C)O)nc3)ccc2F)c1Cl` [Example 343, (R)-2-(5-(3-chloro-4-((1-(2-fluoro-5-(2-(2-hydroxypropan-2-yl)pyrimidin-5-yl)phenyl)ethyl)amino)-2-methylquinolin-6-yl)pyrimidin-2-yl)propan-2-ol] has an IC50 of under 1000 nM.
`Cc1nc2ccccc2c(N[C@H](C)c2cc(-c3cccnc3)ccc2F)c1Cl` [Example 531, (R)-3-chloro-N-(1-(2-fluoro-5-(pyridin-3-yl)phenyl)ethyl)-2-methylquinolin-4-amine] was tested, and the IC50 was under 1000 nM.
With `C[C@@H](Nc1c(Cl)cnc2ccccc12)c1cc(-c2cncc(C(=O)N3CCOCC3)c2)ccc1F` [Example 551, (R)-(5-(3-(1-((3-chloroquinolin-4-yl)amino)ethyl)-4-fluorophenyl)pyridin-3-yl)(morpholino)methanone] the IC50 was 1000 to 10000 nM.
`Cc1nc2ccc(-c3cnc(C(C)(C)O)nc3)cc2c(N[C@H](C)c2cc(-c3cn[nH]c3)ccc2F)c1Cl` [Example 335, (R)-2-(5-(3-chloro-4-((1-(2-fluoro-5-(1H-pyrazol-4-yl)phenyl)ethyl)amino)-2-methylquinolin-6-yl)pyrimidin-2-yl) propan-2-ol] was tested, and the IC50 was under 1000 nM.
`C=Cc1cccc([C@@H](C)Nc2c(Cl)cnc3cc(F)c(-c4cnc(C(C)(C)O)nc4)nc23)c1` [Example 574, (R)-2-(5-(7-chloro-3-fluoro-8-((1-(3-vinylphenyl)ethyl)amino)-1,5-naphthyridin-2-yl)pyrimidin-2-yl)propan-2-ol] gave an IC50 of under 1000 nM.
`CC(C)(O)c1ncc(-c2cc3c(N[C@@H](c4cc(C(N)=O)ccc4F)C(F)F)c(Cl)cnc3cc2F)cn1` [Example 391, (S)-3-(1-((3-chloro-7-fluoro-6-(2-(2-hydroxypropan-2-yl)pyrimidin-5-yl)quinolin-4-yl)amino)-2,2-difluoroethyl)-4-fluorobenzamide] gave an IC50 of under 1000 nM.
Molecule `C[C@@H](Nc1c(Cl)cnc2ccccc12)c1cc(-c2cnn(Cc3ccccc3)c2)ccc1F` [Example 466, (R)—N-(1-(5-(1-benzyl-1H-pyrazol-4-yl)-2-fluorophenyl)ethyl)-3-chloroquinolin-4-amine] has an IC50 of 10000 to 25000 nM.
Work on `C[C@@H](Nc1c(Cl)cnc2ccccc12)c1cc(-c2cncn2C)ccc1F` [Example 524, (R)-3-chloro-N-(1-(2-fluoro-5-(1-methyl-1H-imidazol-5-yl)phenyl)ethyl)quinolin-4-amine] yielded an IC50 of under 1000 nM.
For `Cc1ccc(C)c(Nc2c(Cl)c(COc3cccnc3)nc3ccc(-c4ccc(C#N)nc4)cc23)c1` [Example 41, 5-(3-chloro-4-((2,5-dimethylphenyl)amino)-2-((pyridin-3-yloxy)methyl)quinolin-6-yl)picolinonitrile], the IC50 was 1000 to 10000 nM.
With `CC(Nc1c(Cl)cnc2ccc(-c3cnc(C(C)(C)O)nc3)cc12)[C@@H]1CCCNC1` (mixture of isomers) [Example 98, (R)-2-(5-(3-chloro-4-((1-(piperidin-3-yl)ethyl)amino)quinolin-6-yl)pyrimidin-2-yl)propan-2-ol] the IC50 was 10000 to 25000 nM.
For `Fc1ccc(Br)cc1CNc1c(Cl)cnc2ccccc12` [Example 516, N-(5-bromo-2-fluorobenzyl)-3-chloroquinolin-4-amine], the IC50 was 10000 to 25000 nM.
Molecule `Cc1ccnc(C(C)Nc2c(Cl)cnc3ccc(-c4ccc(C(C)(C)O)cc4)cc23)n1` (racemic) [Example 178, 2-(4-(3-chloro-4-((1-(4-methylpyrimidin-2-yl)ethyl)amino)quinolin-6-yl)phenyl)propan-2-ol] has an IC50 of under 1000 nM.
For `Cc1nc2ccc(-c3cnc(C(C)(C)O)nc3)cc2c(N[C@H](C)c2cc(Cl)ccc2F)c1Cl` [Example 406, (R)-2-(5-(3-chloro-4-((1-(5-chloro-2-fluorophenyl)ethyl)amino)-2-methylquinolin-6-yl)pyrimidin-2-yl)propan-2-ol], the IC50 was under 1000 nM.
For `Cc1nc2ccc(-c3cnc(C(C)(C)O)nc3)cc2c(N[C@H](C)c2cc(O)ccc2F)c1Cl` [Example 404, (R)-3-(1-((3-chloro-6-(2-(2-hydroxypropan-2-yl)pyrimidin-5-yl)-2-methylquinolin-4-yl)amino)ethyl)-4-fluorophenol], the IC50 was under 1000 nM.
